Results from ChEMBL document CHEMBL1158337, “Synthesis and bioassay of a new class of heterocycles pyrrolyl oxadiazoles/thiadiazoles/triazoles” (Eur J Med Chem, 2009).
Values after ≈ are worked out from the molar mass of the structure shown.

How the values were obtained:
Aspergillus niger [1] = test: Antifungal activity against Aspergillus niger at 200 ug/disk after 48 hrs by agar disc-diffusion method; format: functional; details: read-out: IZ
Curvularia lunata [2] = test: Antifungal activity against Curvularia lunata at 200 ug/disk after 48 hrs by agar disc-diffusion method; format: functional; details: read-out: IZ
Aspergillus niger [3] = test: Antifungal activity against Aspergillus niger at 100 ug/disk after 48 hrs by agar disc-diffusion method; format: functional; details: read-out: IZ
Fusarium solani [4] = test: Antifungal activity against Fusarium solani at 100 ug/disk after 48 hrs by agar disc-diffusion method; format: functional; details: read-out: IZ
Fusarium solani [5] = test: Antifungal activity against Fusarium solani at 200 ug/disk after 48 hrs by agar disc-diffusion method; format: functional; details: read-out: IZ
Bacillus subtilis [6] = test: Antibacterial activity against Bacillus subtilis at 200 ug/disk after 24 hrs by agar disc-diffusion method; format: functional; details: read-out: IZ
Klebsiella pneumoniae [7] = test: Antibacterial activity against Klebsiella pneumoniae at 100 ug/disk after 24 hrs by agar disc-diffusion method; format: functional; details: read-out: IZ
Bacillus subtilis [8] = test: Antibacterial activity against Bacillus subtilis at 100 ug/disk after 24 hrs by agar disc-diffusion method; format: functional; details: read-out: IZ
Staphylococcus aureus [9] = test: Antibacterial activity against Staphylococcus aureus at 200 ug/disk after 24 hrs by agar disc-diffusion method; format: functional; details: read-out: IZ
Klebsiella pneumoniae [10] = test: Antibacterial activity against Klebsiella pneumoniae at 200 ug/disk after 24 hrs by agar disc-diffusion method; format: functional; details: read-out: IZ
Escherichia coli [11] = test: Antibacterial activity against Escherichia coli at 200 ug/disk after 24 hrs by agar disc-diffusion method; format: functional; details: read-out: IZ
Curvularia lunata [12] = test: Antifungal activity against Curvularia lunata at 100 ug/disk after 48 hrs by agar disc-diffusion method; format: functional; details: read-out: IZ
Escherichia coli [13] = test: Antibacterial activity against Escherichia coli at 100 ug/disk after 24 hrs by agar disc-diffusion method; format: functional; details: read-out: IZ
Staphylococcus aureus [14] = test: Antibacterial activity against Staphylococcus aureus at 100 ug/disk after 24 hrs by agar disc-diffusion method; format: functional; details: read-out: IZ
Staphylococcus aureus [15] = test: Antibacterial activity against Staphylococcus aureus after 24 hrs by microdilution susceptibility method; format: functional
Aspergillus niger [16] = test: Antifungal activity against Aspergillus niger after 48 hrs by microdilution susceptibility method; format: functional
Curvularia lunata [17] = test: Antifungal activity against Curvularia lunata after 48 hrs by microdilution susceptibility method; format: functional
Fusarium solani [18] = test: Antifungal activity against Fusarium solani after 48 hrs by microdilution susceptibility method; format: functional
Klebsiella pneumoniae [19] = test: Antibacterial activity against Klebsiella pneumoniae after […] by microdilution susceptibility method; format: functional
Escherichia coli [20] = test: Antibacterial activity against Escherichia coli after 24 hrs by microdilution susceptibility method; format: functional
Bacillus subtilis [21] = test: Antibacterial activity against Bacillus subtilis after 24 hrs by microdilution susceptibility method; format: functional
A549 = test: Cytotoxicity against human A549 cells upto 100 uM after 72 hrs by MTT assay in presence of 10% fetal bovine serum; format: functional, cell-based
[22] = Cytotoxicity against mink CCL64 cells upto 100 uM after 72 hrs by MTT assay in presence of 0.2% fetal bovine serum; format: cell-based; details: neovison vison, ccl64, 72 h

Row | MIC (Aspergillus niger [16]) | MIC (Curvularia lunata [17]) | MIC (Fusarium solani [18]) | MIC (Klebsiella pneumoniae [19]) | MIC (Bacillus subtilis [21]) | SMILES | zone of inhibition at 200 µg/disc (Aspergillus niger [1]) | zone of inhibition at 200 µg/disc (Curvularia lunata [2]) | zone of inhibition at 100 µg/disc (Aspergillus niger [3]) | zone of inhibition at 100 µg/disc (Fusarium solani [4]) | zone of inhibition at 200 µg/disc (Fusarium solani [5]) | zone of inhibition at 200 µg/disc (Bacillus subtilis [6]) | zone of inhibition at 100 µg/disc (Klebsiella pneumoniae [7]) | zone of inhibition at 100 µg/disc (Bacillus subtilis [8]) | zone of inhibition at 200 µg/disc (Staphylococcus aureus [9]) | zone of inhibition at 200 µg/disc (Klebsiella pneumoniae [10]) | zone of inhibition at 200 µg/disc (Escherichia coli [11]) | zone of inhibition at 100 µg/disc (Curvularia lunata [12]) | zone of inhibition at 100 µg/disc (Escherichia coli [13]) | zone of inhibition at 100 µg/disc (Staphylococcus aureus [14]) | further results
1 |  |  |  |  |  | Cc1ccc(S(=O)(=O)c2c[nH]cc2S(=O)(=O)Cc2nnc(S)o2)cc1 | 21 mm | 18 mm | 17 mm | 16 mm | 19 mm | 16 mm | 11 mm | 12 mm | 14 mm | 13 mm | 14 mm | 15 mm | 11 mm | 11 mm | 
2 | 25 µg/mL (≈ 57.6 µM) | 12.5 µg/mL (≈ 28.8 µM) | 50 µg/mL (≈ 115 µM) | 50 µg/mL (≈ 115 µM) | 50 µg/mL (≈ 115 µM) | Nn1c(S)nnc1CS(=O)(=O)c1c[nH]cc1S(=O)(=O)c1ccc(Cl)cc1 | 37 mm | 41 mm | 34 mm | 35 mm | 40 mm | 38 mm | 26 mm | 34 mm | 35 mm | 28 mm | 25 mm | 38 mm | 23 mm | 32 mm | MIC (Staphylococcus aureus [15]): 12.5 µg/mL (≈ 28.8 µM); MIC (Escherichia coli [20]): 50 µg/mL (≈ 115 µM)
3 |  |  |  |  |  | O=S(=O)(Cc1nnc(S)o1)c1c[nH]cc1S(=O)(=O)c1ccc(Cl)cc1 | 18 mm | 20 mm | 15 mm | 18 mm | 21 mm | 18 mm | 11 mm | 14 mm | 17 mm | 13 mm | 12 mm | 17 mm | 10 mm | 14 mm | 
4 | 100 µg/mL (≈ 250 µM) | 100 µg/mL (≈ 250 µM) | 100 µg/mL (≈ 250 µM) | 100 µg/mL (≈ 250 µM) | 100 µg/mL (≈ 250 µM) | Nn1c(S)nnc1CS(=O)(=O)c1c[nH]cc1S(=O)(=O)c1ccccc1 | 34 mm | 36 mm | 30 mm | 33 mm | 36 mm | 35 mm | 21 mm | 31 mm | 32 mm | 22 mm | 26 mm | 34 mm | 22 mm | 28 mm | MIC (Staphylococcus aureus [15]): 25 µg/mL (≈ 62.6 µM); MIC (Escherichia coli [20]): 100 µg/mL (≈ 250 µM); Activity (A549): Not toxic; Activity [22]: Non-toxic
5 |  |  |  |  |  | Cc1ccc(S(=O)(=O)c2c[nH]cc2S(=O)(=O)Cc2nnc(S)n2N)cc1 | 36 mm | 35 mm | 34 mm | 29 mm | 33 mm | 27 mm | 21 mm | 25 mm | 28 mm | 23 mm | 24 mm | 28 mm | 20 mm | 24 mm | 
6 | 200 µg/mL (≈ 459 µM) | 100 µg/mL (≈ 229 µM) | 100 µg/mL (≈ 229 µM) | 200 µg/mL (≈ 459 µM) | 200 µg/mL (≈ 459 µM) | O=S(=O)(Cc1nnc(S)s1)c1c[nH]cc1S(=O)(=O)c1ccc(Cl)cc1 | 28 mm | 25 mm | 26 mm | 26 mm | 31 mm | 32 mm | 23 mm | 28 mm | 30 mm | 28 mm | 27 mm | 23 mm | 22 mm | 25 mm | MIC (Staphylococcus aureus [15]): 100 µg/mL (≈ 229 µM); MIC (Escherichia coli [20]): 200 µg/mL (≈ 459 µM)
7 |  |  |  |  |  | O=S(=O)(Cc1nnc(S)s1)c1c[nH]cc1S(=O)(=O)c1ccccc1 | 29 mm | 29 mm | 24 mm | 25 mm | 27 mm | 23 mm | 17 mm | 21 mm | 20 mm | 21 mm | 20 mm | 28 mm | 16 mm | 18 mm | Activity (A549): Not toxic; Activity [22]: Non-toxic
8 |  |  |  |  |  | O=S(=O)(Cc1nnc(S)o1)c1c[nH]cc1S(=O)(=O)c1ccccc1 | 20 mm | 21 mm | 15 mm | 18 mm | 20 mm | 13 mm | 13 mm | 11 mm | 15 mm | 16 mm | 17 mm | 17 mm | 14 mm | 12 mm | Activity (A549): Not toxic; Activity [22]: Non-toxic
9 |  |  |  |  |  | Cc1ccc(S(=O)(=O)c2c[nH]cc2S(=O)(=O)Cc2nnc(S)s2)cc1 | 24 mm | 24 mm | 21 mm | 25 mm | 27 mm | 19 mm | 16 mm | 17 mm | 17 mm | 19 mm | 20 mm | 22 mm | 18 mm | 16 mm | 

Row | SMILES | MIC (Aspergillus niger [16]) | MIC (Curvularia lunata [17]) | MIC (Fusarium solani [18]) | MIC (Klebsiella pneumoniae [19]) | MIC (Bacillus subtilis [21]) | zone of inhibition at 200 µg/disc (Aspergillus niger [1]) | zone of inhibition at 200 µg/disc (Curvularia lunata [2]) | zone of inhibition at 100 µg/disc (Aspergillus niger [3]) | zone of inhibition at 100 µg/disc (Fusarium solani [4]) | zone of inhibition at 200 µg/disc (Fusarium solani [5]) | zone of inhibition at 200 µg/disc (Bacillus subtilis [6]) | zone of inhibition at 100 µg/disc (Klebsiella pneumoniae [7]) | zone of inhibition at 100 µg/disc (Bacillus subtilis [8]) | zone of inhibition at 200 µg/disc (Staphylococcus aureus [9]) | zone of inhibition at 200 µg/disc (Klebsiella pneumoniae [10]) | zone of inhibition at 200 µg/disc (Escherichia coli [11]) | zone of inhibition at 100 µg/disc (Curvularia lunata [12]) | zone of inhibition at 100 µg/disc (Escherichia coli [13]) | zone of inhibition at 100 µg/disc (Staphylococcus aureus [14]) | further results
10 | CC(=O)N1CCN(c2ccc(OCC3COC(Cn4ccnc4)(c4ccc(Cl)cc4Cl)O3)cc2)CC1 (configuration not stated) [KETOCONAZOLE] | 6.25 µg/mL (≈ 11.8 µM) | 6.25 µg/mL (≈ 11.8 µM) | 12.5 µg/mL (≈ 23.5 µM) |  |  | 39 mm | 44 mm | 36 mm | 38 mm | 42 mm |  |  |  |  |  |  | 41 mm |  |  | 
11 | O=C(O)c1cn(C2CC2)c2cc(N3CCNCC3)c(F)cc2c1=O [CIPROFLOXACIN] |  |  |  | 6.25 µg/mL (≈ 18.9 µM) | 6.25 µg/mL (≈ 18.9 µM) |  |  |  |  |  | 42 mm | 37 mm | 36 mm | 38 mm | 42 mm | 45 mm |  | 40 mm | 34 mm | 
